For data set [1], the system named is RSV. Put plainly: Virus challenge: viable virus in lung homogenates on Hep-2 monolayers. Type of data set: in vivo, Mice. The note with it: single IN dose ~2.25 mg/Kg (15% of dose) 3 hours after infection with 1.3×10^5 PFU, 100 ul per well. How it is done:
Mice were challenged with 1.3×10^5 plaque forming units. Three hours after infection a test group was treated with a single dose of Palivizumab IN (˜2.25 mg/Kg) and a control group received saline. Three days after infection, lung tissue was collected and homogenized. The subsequent homogenates were dispensed onto Hep-2 monolayers and the cultures were monitored for evidence of viable virus. The total homogenate volume recovered from each animal was approximately 1.5 to 2 mls and the amount placed in each test well was 100 ul.

Data set [2] relates to RSV. Put plainly: Synagis plaque assay in vitro. It is filed as cell-based. The following applies: FIG. 8.

“Also recorded” adds a separate entry of the source.

Turning to “Palivizumab: RSV Specific MAB (Palivizumab), Synagis, humanized antibody”, the “Lung Tissue Collected @ 72 Hours Post Infection (assayed straight), PFU” value in data set [1] is listed as “no plaque forming units were observed; also recorded: No PFU Observed”. Under “IN 100 μl group, 15 mg/kg”, the “peak lung antibody concentration relative to any other delivery route” value is “at least 2 times”. For the same substance, where the note is “IN delivery”, the “persistence of IN-delivered antibody in lung” value is “short lived”. The “concentration of antibody capable of blocking high numbers of virus” value in data set [2] was determined as 6 µg/mL.
